Laboratory results as given in US5545653A (priority 1995, dated 1996).
In brackets after ≈: the same amount, converted by molar mass.

Assays:
Format in all cases: cell-based
[1] = system: RhV-14 (Rhinovirus); assay: microbe, parasite or virus in culture; conditions: Enterovirus; 120 hours at 32° C.; read-out: IC50 (50 percent inhibition of plaque formation), RhV-14
[2] = system: CS-21C (Coxsackie virus); assay: organism not typed; conditions: 72 hours at 37° C.; read-out: IC50 (50 percent inhibition of plaque formation), CS-21C
[3] = system: PV-1 (poliovirus); assay: microbe, parasite or virus in culture; conditions: Enterovirus C, 72 h, read-out: IC50 (50 percent inhibition of plaque formation), PV-1

Question: Which IC50 [1] does the source give for CC(C)S(=O)(=O)n1c(N)nc2ccc(C(=O)c3cccc(F)c3)cc21 [Example 3] here?
Answer: 2.14 µg/mL (≈ 5.92 µM)

Question: For CC(C)S(=O)(=O)n1c(N)nc2ccc(C(=O)c3cc(F)cc(F)c3)cc21 [Example 5], which IC50 [1] is on record?
Answer: 3.9 µg/mL (≈ 10.3 µM)

Question: Which IC50 [1] does the source give for CC(C)S(=O)(=O)n1c(N)nc2ccc(C(=O)c3ccc(OC(F)(F)F)cc3)cc21 [Example 6] here?
Answer: 0.329 µg/mL (≈ 0.77 µM)

Question: Which results are given for CC(C)S(=O)(=O)n1c(N)nc2ccc(C(=O)c3ccccc3F)cc21 [Example 11]?
Answer: IC50 [2]: 0.44 µg/mL (≈ 1.22 µM); IC50 [3]: 1.7 µg/mL (≈ 4.7 µM)

Question: With CC(C)S(=O)(=O)n1c(N)nc2ccc(C(=O)c3cc(F)ccc3F)cc21 [Example 20] as the compound, how does the IC50 [1] read?
Answer: 1.32 µg/mL (≈ 3.48 µM)

Question: What about the IC50 [3] of the same compound?
Answer: 0.19 µg/mL (≈ 0.501 µM)
